The text below walks through data of PubChem BioAssay AID1963837 (Molecular Pharmacology Branch, DTP, NCI, 2024).

A word on the viability, T/C: it is the result in the treated group divided by that in the control group, in per cent.
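Also: spheroids exposed to drugs for seven days before readout.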

The subject of one test is 843126-344-R-J1-PDC complex spheroid viability. The test can be described thus: Anticancer human tumor 843126-344-R-J1-PDC patient-derived melanoma cell line growth inhibition [POLQ]. The following applies: second compound 10 µM; first compound 0.0316 µM; stronger effect = lower value. An outline of the steps:
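Three-cell-type spheroids modelling solid tumor plus stroma served as the readout system; POL inhibitors were tested individually and in combination, concentration ranges set by clinical Cmax where known.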
As to `COc1cc2cc(C(=O)CCC(=O)O)sc2cc1OC` + Nc1ccc(C#CCN(C(=O)Cc2ncc(C(F)(F)F)cc2C(F)(F)F)c2ccc(F)cc2)nn1, the viability, T/C was 77.2%.
On the same count and under the same terms, next, `O=C(Nc1ccc(O)c(NS(=O)(=O)c2ccc(F)cc2)c1)c1ccc(-c2ccccc2)cc1` + Nc1ccc(C#CCN(C(=O)Cc2ncc(C(F)(F)F)cc2C(F)(F)F)c2ccc(F)cc2)nn1: 82.3%.

Still in this test, the particulars now being: second compound 10 µM; first compound 0.1 µM; stronger effect = lower value.
Turning to `C#Cc1c(F)ccc2cc(O)cc(-c3ncc4c(N5CC6CCC(C5)N6)nc(OCC56CCCN5CC(F)C6)nc4c3F)c12` (configuration not stated) + Nc1ccc(C#CCN(C(=O)Cc2ncc(C(F)(F)F)cc2C(F)(F)F)c2ccc(F)cc2)nn1, the viability, T/C was 83.4%.
Turning to `CC1COCCN1c1cc(C2(O)CC3CCC(C2)O3)c2cnn(-c3ccn[nH]3)c2n1` (configuration not stated) + Nc1ccc(C#CCN(C(=O)Cc2ncc(C(F)(F)F)cc2C(F)(F)F)c2ccc(F)cc2)nn1, the viability, T/C is 56.7%.
Still for that read-out and setting: next, `CCc1cc2c(N3CCc4c(cc(Cn5ccnc5)cc4-c4cn(C)nc4C(F)(F)F)C3=O)cc(C)nc2c(OC)n1` + Nc1ccc(C#CCN(C(=O)Cc2ncc(C(F)(F)F)cc2C(F)(F)F)c2ccc(F)cc2)nn1: 89.6%; `COc1cc2cc(C(=O)CCC(=O)O)sc2cc1OC` + Nc1ccc(C#CCN(C(=O)Cc2ncc(C(F)(F)F)cc2C(F)(F)F)c2ccc(F)cc2)nn1: 84.3%.
Consider `O=C(Nc1ccc(O)c(NS(=O)(=O)c2ccc(F)cc2)c1)c1ccc(-c2ccccc2)cc1` + Nc1ccc(C#CCN(C(=O)Cc2ncc(C(F)(F)F)cc2C(F)(F)F)c2ccc(F)cc2)nn1, for which the viability, T/C is 74.1%.

Staying with this test, now noted: second compound 10 µM; first compound 0.316 µM; stronger effect = lower value.
Take `C#Cc1c(F)ccc2cc(O)cc(-c3ncc4c(N5CC6CCC(C5)N6)nc(OCC56CCCN5CC(F)C6)nc4c3F)c12` (configuration not stated) + Nc1ccc(C#CCN(C(=O)Cc2ncc(C(F)(F)F)cc2C(F)(F)F)c2ccc(F)cc2)nn1: the viability, T/C is 86.5%.
Take `CC1COCCN1c1cc(C2(O)CC3CCC(C2)O3)c2cnn(-c3ccn[nH]3)c2n1` (configuration not stated) + Nc1ccc(C#CCN(C(=O)Cc2ncc(C(F)(F)F)cc2C(F)(F)F)c2ccc(F)cc2)nn1: the viability, T/C was 47.8%.
In the case of `CCc1cc2c(N3CCc4c(cc(Cn5ccnc5)cc4-c4cn(C)nc4C(F)(F)F)C3=O)cc(C)nc2c(OC)n1` + Nc1ccc(C#CCN(C(=O)Cc2ncc(C(F)(F)F)cc2C(F)(F)F)c2ccc(F)cc2)nn1, the viability, T/C is 75.8%.
Regarding `COc1cc2cc(C(=O)CCC(=O)O)sc2cc1OC` + Nc1ccc(C#CCN(C(=O)Cc2ncc(C(F)(F)F)cc2C(F)(F)F)c2ccc(F)cc2)nn1, the viability, T/C was 92.2%.
As for `O=C(Nc1ccc(O)c(NS(=O)(=O)c2ccc(F)cc2)c1)c1ccc(-c2ccccc2)cc1` + Nc1ccc(C#CCN(C(=O)Cc2ncc(C(F)(F)F)cc2C(F)(F)F)c2ccc(F)cc2)nn1, the viability, T/C is 86.9%.

The test is the same for the next values; noted with them: second compound 10 µM; first compound 1 µM; stronger effect = lower value.
As for `C#Cc1c(F)ccc2cc(O)cc(-c3ncc4c(N5CC6CCC(C5)N6)nc(OCC56CCCN5CC(F)C6)nc4c3F)c12` (configuration not stated) + Nc1ccc(C#CCN(C(=O)Cc2ncc(C(F)(F)F)cc2C(F)(F)F)c2ccc(F)cc2)nn1, the viability, T/C was 83.6%.
Still for that read-out and setting: next, `CC1COCCN1c1cc(C2(O)CC3CCC(C2)O3)c2cnn(-c3ccn[nH]3)c2n1` (configuration not stated) + Nc1ccc(C#CCN(C(=O)Cc2ncc(C(F)(F)F)cc2C(F)(F)F)c2ccc(F)cc2)nn1: 33%; `CCc1cc2c(N3CCc4c(cc(Cn5ccnc5)cc4-c4cn(C)nc4C(F)(F)F)C3=O)cc(C)nc2c(OC)n1` + Nc1ccc(C#CCN(C(=O)Cc2ncc(C(F)(F)F)cc2C(F)(F)F)c2ccc(F)cc2)nn1: 81.5%; `COc1cc2cc(C(=O)CCC(=O)O)sc2cc1OC` + Nc1ccc(C#CCN(C(=O)Cc2ncc(C(F)(F)F)cc2C(F)(F)F)c2ccc(F)cc2)nn1: 79.1%.
For the compound `O=C(Nc1ccc(O)c(NS(=O)(=O)c2ccc(F)cc2)c1)c1ccc(-c2ccccc2)cc1` + Nc1ccc(C#CCN(C(=O)Cc2ncc(C(F)(F)F)cc2C(F)(F)F)c2ccc(F)cc2)nn1, the viability, T/C was 72.4%.

Staying with this test, now noted: second compound 10 µM; first compound 3.16 µM; stronger effect = lower value.
Turning to `C#Cc1c(F)ccc2cc(O)cc(-c3ncc4c(N5CC6CCC(C5)N6)nc(OCC56CCCN5CC(F)C6)nc4c3F)c12` (configuration not stated) + Nc1ccc(C#CCN(C(=O)Cc2ncc(C(F)(F)F)cc2C(F)(F)F)c2ccc(F)cc2)nn1, the viability, T/C was 85.8%.
The same measure, in the same setting: next, `CC1COCCN1c1cc(C2(O)CC3CCC(C2)O3)c2cnn(-c3ccn[nH]3)c2n1` (configuration not stated) + Nc1ccc(C#CCN(C(=O)Cc2ncc(C(F)(F)F)cc2C(F)(F)F)c2ccc(F)cc2)nn1: 26.7%.
On to `CCc1cc2c(N3CCc4c(cc(Cn5ccnc5)cc4-c4cn(C)nc4C(F)(F)F)C3=O)cc(C)nc2c(OC)n1` + Nc1ccc(C#CCN(C(=O)Cc2ncc(C(F)(F)F)cc2C(F)(F)F)c2ccc(F)cc2)nn1, for which the viability, T/C is 73.3%.
As for `COc1cc2cc(C(=O)CCC(=O)O)sc2cc1OC` + Nc1ccc(C#CCN(C(=O)Cc2ncc(C(F)(F)F)cc2C(F)(F)F)c2ccc(F)cc2)nn1, the viability, T/C was 92.7%.
Still for that read-out and setting: next, `O=C(Nc1ccc(O)c(NS(=O)(=O)c2ccc(F)cc2)c1)c1ccc(-c2ccccc2)cc1` + Nc1ccc(C#CCN(C(=O)Cc2ncc(C(F)(F)F)cc2C(F)(F)F)c2ccc(F)cc2)nn1: 80.6%.

Staying with this test, now noted: second compound 10 µM; first compound 10 µM; stronger effect = lower value.
For the compound `C#Cc1c(F)ccc2cc(O)cc(-c3ncc4c(N5CC6CCC(C5)N6)nc(OCC56CCCN5CC(F)C6)nc4c3F)c12` (configuration not stated) + Nc1ccc(C#CCN(C(=O)Cc2ncc(C(F)(F)F)cc2C(F)(F)F)c2ccc(F)cc2)nn1, the viability, T/C is 79.4%.
Turning to `CC1COCCN1c1cc(C2(O)CC3CCC(C2)O3)c2cnn(-c3ccn[nH]3)c2n1` (configuration not stated) + Nc1ccc(C#CCN(C(=O)Cc2ncc(C(F)(F)F)cc2C(F)(F)F)c2ccc(F)cc2)nn1, the viability, T/C was 20.1%.
As for `CCc1cc2c(N3CCc4c(cc(Cn5ccnc5)cc4-c4cn(C)nc4C(F)(F)F)C3=O)cc(C)nc2c(OC)n1` + Nc1ccc(C#CCN(C(=O)Cc2ncc(C(F)(F)F)cc2C(F)(F)F)c2ccc(F)cc2)nn1, the viability, T/C was 59.4%.
Same read-out and setting: then `COc1cc2cc(C(=O)CCC(=O)O)sc2cc1OC` + Nc1ccc(C#CCN(C(=O)Cc2ncc(C(F)(F)F)cc2C(F)(F)F)c2ccc(F)cc2)nn1, with 94.1%; and `O=C(Nc1ccc(O)c(NS(=O)(=O)c2ccc(F)cc2)c1)c1ccc(-c2ccccc2)cc1` + Nc1ccc(C#CCN(C(=O)Cc2ncc(C(F)(F)F)cc2C(F)(F)F)c2ccc(F)cc2)nn1, with 55.4%.
